From PubChem BioAssay AID328 (DTP/NCI, 2004)
Values joined by “and” are separate entries in the source; they are usually repeats but may differ in a detail not shown here. Equal values may be shown once. Inconclusive results and toxic doses are left out.

Test system: BDF1 mice, P388 leukemia ip, median survival T/C
Experiment: NCI In Vivo Anticancer Drug Screen. Data for tumor model P388 Leukemia (intraperitoneal) in B6D2F1 (BDF1) mice
Details: endpoint: median survival time, higher = longer survival
Summary of the method: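 Read-out is survival of treated animals expressed relative to the vehicle group, as a T/C ratio.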

[1] = dose: 200.0 mg/kg/injection, schedule: Q01DX009 (ip), vehicle: Klucel (hydroxypropylcellulose) (HPC)
[2] = dose: 12.5 mg/kg/injection, schedule: Q01DX009 (ip), vehicle: saline with Tween-80
[3] = dose: 50.0 mg/kg/injection, schedule: Q01DX009 (ip), vehicle: saline with Tween-80
[4] = dose: 100.0 mg/kg/injection, schedule: Q01DX009 (ip), vehicle: saline with Tween-80
[5] = dose: 100.0 mg/kg/injection, schedule: Q04DX003 (ip), vehicle: saline with Tween-80
[6] = dose: 200.0 mg/kg/injection, schedule: Q01DX009 (ip), vehicle: saline with Tween-80
[7] = dose: 25.0 mg/kg/injection, schedule: Q01DX009 (ip), vehicle: saline
[8] = dose: 50.0 mg/kg/injection, schedule: Q01DX009 (ip), vehicle: saline
[9] = dose: 100.0 mg/kg/injection, schedule: Q01DX009 (ip), vehicle: saline
[10] = dose: 200.0 mg/kg/injection, schedule: Q01DX009 (ip), vehicle: saline
[11] = dose: 400.0 mg/kg/injection, schedule: Q01DX009 (ip), vehicle: saline
[12] = dose: 100.0 mg/kg/injection, schedule: Q01DX009 (ip), vehicle: Klucel (hydroxypropylcellulose) (HPC)
[13] = dose: 400.0 mg/kg/injection, schedule: Q01DX001 (ip), vehicle: saline sonified
[14] = dose: 100.0 mg/kg/injection, schedule: Q04DX002 (ip), vehicle: saline with Tween-80
[15] = dose: 200.0 mg/kg/injection, schedule: Q04DX002 (ip), vehicle: saline with Tween-80
[16] = dose: 50.0 mg/kg/injection, schedule: Q01DX005 (ip), vehicle: saline with Tween-80
[17] = dose: 100.0 mg/kg/injection, schedule: Q01DX005 (ip), vehicle: saline with Tween-80
[18] = dose: 200.0 mg/kg/injection, schedule: Q01DX005 (ip), vehicle: saline with Tween-80
[19] = dose: 100.0 mg/kg/injection, schedule: Q04DX003 (ip), vehicle: saline
[20] = dose: 200.0 mg/kg/injection, schedule: Q04DX003 (ip), vehicle: saline

With CNC(=S)N/N=C/C(C)=N/NC(=S)NC the T/C (dose: 1.6 mg/kg/injection, schedule: Q01DX009 (ip), vehicle: Klucel (hydroxypropylcellulose) (HPC)) was 113 % of control, the T/C (dose: 3.12 mg/kg/injection, schedule: Q01DX009 (ip), vehicle: Klucel (hydroxypropylcellulose) (HPC)) was 104 % of control and the T/C (dose: 12.5 mg/kg/injection, schedule: Q01DX009 (ip), vehicle: Klucel (hydroxypropylcellulose) (HPC)) was 104 % of control. For the same compound, the T/C (dose: 50.0 mg/kg/injection, schedule: Q01DX009 (ip), vehicle: Klucel (hydroxypropylcellulose) (HPC)) was 100 % of control, the T/C [1] was 100 % of control and the T/C (dose: 125.0 micrograms/kg/injection, schedule: Q01DX009 (ip), vehicle: saline) was 109 % of control. For the same compound, the T/C (dose: 250.0 micrograms/kg/injection, schedule: Q01DX009 (ip), vehicle: saline) was 109 % of control, the T/C (dose: 500.0 micrograms/kg/injection, schedule: Q01DX009 (ip), vehicle: saline) was 109 % of control and the T/C (dose: 1000.0 micrograms/kg/injection, schedule: Q01DX009 (ip), vehicle: saline) was 109 % of control.
With O=[N+]([O-])c1ccc(OCCNS(=O)(=O)c2cccc(S(=O)(=O)F)c2)c(Cl)c1 the T/C [2] was 110 % of control, the T/C [3] was 110 % of control and the T/C [4] was 94 % of control. The T/C [5] was 99 % of control, the T/C [6] was 105 % of control and the T/C (dose: 200.0 mg/kg/injection, schedule: Q04DX003 (ip), vehicle: saline with Tween-80) was 99 % of control. For the same compound, the T/C (dose: 400.0 mg/kg/injection, schedule: Q01DX009 (ip), vehicle: saline with Tween-80) was 88 % of control and the T/C (dose: 400.0 mg/kg/injection, schedule: Q04DX003 (ip), vehicle: saline with Tween-80) was 108 % of control.
In the case of CC(=N\O)/C(C)=N/O.CC(=N\O)/C(C)=N/O.[Br][Rh][Br], the T/C [7] was 99 % of control, the T/C [8] was 100 % of control and the T/C [9] was 119 % of control and 92 % of control. The T/C [10] was 110 % of control and 99 % of control and 100 % of control and the T/C [11] was 100 % of control.
In the case of CCOC(=O)c1cc[nH]c1CC(=O)NC, the T/C (dose: 200.0 mg/kg/injection, schedule: Q01DX001 (ip), vehicle: saline with Tween-80) was 112 % of control and the T/C (dose: 400.0 mg/kg/injection, schedule: Q01DX001 (ip), vehicle: saline with Tween-80) was 112 % of control.
In the case of CC(=NCc1ccccc1)C(C)(O)c1ccccc1 (configuration not stated), the T/C (dose: 100.0 mg/kg/injection, schedule: Q01DX001 (ip), vehicle: Klucel (hydroxypropylcellulose) (HPC)) was 100 % of control, the T/C (dose: 100.0 mg/kg/injection, schedule: Q01DX001 (ip), vehicle: saline) was 109 % of control and the T/C [12] was 110 % of control. For the same compound, the T/C (dose: 200.0 mg/kg/injection, schedule: Q01DX001 (ip), vehicle: Klucel (hydroxypropylcellulose) (HPC)) was 104 % of control, the T/C (dose: 200.0 mg/kg/injection, schedule: Q01DX001 (ip), vehicle: saline) was 100 % of control and the T/C [1] was 100 % of control. For the same compound, the T/C (dose: 400.0 mg/kg/injection, schedule: Q01DX001 (ip), vehicle: Klucel (hydroxypropylcellulose) (HPC)) was 100 % of control, the T/C (dose: 400.0 mg/kg/injection, schedule: Q01DX001 (ip), vehicle: saline) was 118 % of control and the T/C (dose: 400.0 mg/kg/injection, schedule: Q01DX009 (ip), vehicle: Klucel (hydroxypropylcellulose) (HPC)) was 105 % of control.
In the case of CCOC(=O)/C(=N\O)C1=CSC2=NNC(C)(C)N12, the T/C [3] was 95 % of control and the T/C [6] was 92 % of control.
With CC12C3C(=O)NC45CCCC41C5(c1ccccc1)C32c1ccccc1 (configuration not stated) the T/C (dose: 100.0 mg/kg/injection, schedule: Q01DX001 (ip), vehicle: saline sonified) was 95 % of control, the T/C (dose: 200.0 mg/kg/injection, schedule: Q01DX001 (ip), vehicle: saline sonified) was 95 % of control and the T/C [13] was 86 % of control.
With N#CCC(=O)Cc1ccccc1[N+](=O)[O-] the T/C [13] was 100 % of control.
In the case of O=C(OCCC(OC(=O)c1ccccc1)C(COC(=O)c1ccccc1)OC(=O)c1ccccc1)c1ccccc1 (configuration not stated), the T/C [12] was 87 % of control and the T/C [1] was 95 % of control.
For CC(C(=O)O)S(=O)(=O)c1ccccc1 (configuration not stated), the T/C [14] was 93 % of control and the T/C [15] was 102 % of control.
CC1CC2CCCCN2O1 (configuration not stated) was tested, and the T/C [14] was 102 % of control, the T/C [15] was 103 % of control and the T/C (dose: 400.0 mg/kg/injection, schedule: Q04DX002 (ip), vehicle: saline with Tween-80) was 105 % of control.
For CN(CCS)Cc1ccccc1, the T/C (dose: 25.0 mg/kg/injection, schedule: Q04DX003 (ip), vehicle: saline with Tween-80) was 100 % of control, the T/C (dose: 50.0 mg/kg/injection, schedule: Q04DX003 (ip), vehicle: saline with Tween-80) was 104 % of control and the T/C [5] was 100 % of control.
For S=c1[nH]nc(Nc2ccccc2Cl)s1, the T/C [3] was 100 % of control, the T/C [4] was 90 % of control and the T/C [6] was 100 % of control.
For O=C(Nc1cccc2ccccc12)ON1C(=O)c2ccccc2C1=O, the T/C [16] was 110 % of control, the T/C [17] was 115 % of control and the T/C [18] was 120 % of control.
With CC1(C)O[C@]2(C)CC[C@@H]1C[C@H]2O the T/C [16] was 100 % of control, the T/C [17] was 98 % of control and the T/C [18] was 95 % of control.
For Cc1c[n+]([O-])ccc1[N+](=O)[O-], the T/C [7] was 100 % of control, the T/C [8] was 104 % of control and the T/C (dose: 50.0 mg/kg/injection, schedule: Q04DX003 (ip), vehicle: saline) was 100 % of control. For the same compound, the T/C [19] was 90 % of control and 95 % of control, the T/C (dose: 150.0 mg/kg/injection, schedule: Q04DX003 (ip), vehicle: saline) was 100 % of control and the T/C [20] was 86 % of control.
For CCCC(N)C(=O)c1ccccc1 (configuration not stated), the T/C [7] was 109 % of control and the T/C [8] was 109 % of control.
Cc1cc(-c2ccc(Cl)cc2)[n+](C)n1C was tested, and the T/C [2] was 100 % of control and the T/C (dose: 25.0 mg/kg/injection, schedule: Q01DX009 (ip), vehicle: saline with Tween-80) was 111 % of control.
For Ic1ncnc2c1ncn2C1CCCCO1 (configuration not stated), the T/C (dose: 100.0 mg/kg/injection, schedule: Q04DX003 (ip), vehicle: saline sonified) was 91 % of control, the T/C (dose: 200.0 mg/kg/injection, schedule: Q04DX003 (ip), vehicle: saline sonified) was 91 % of control and the T/C (dose: 400.0 mg/kg/injection, schedule: Q04DX003 (ip), vehicle: saline sonified) was 91 % of control.
In the case of OCC(CO)(CO)CBr, the T/C [9] was 110 % of control, the T/C [19] was 90 % of control and the T/C [10] was 110 % of control. For the same compound, the T/C [20] was 90 % of control, the T/C [11] was 88 % of control and the T/C (dose: 400.0 mg/kg/injection, schedule: Q04DX003 (ip), vehicle: saline) was 114 % of control.
For O=C1N[C@@H]([C@H]2CC[C@H](Cl)CN2)C(=O)N[C@H]1[C@H]1CC[C@H](Cl)CN1, the T/C (dose: 0.1 mg/kg/injection, schedule: Q01DX010 (ip), vehicle: saline) was 154 % of control, the T/C (dose: 0.2 mg/kg/injection, schedule: Q01DX010 (ip), vehicle: saline) was 181 % of control and the T/C (dose: 0.4 mg/kg/injection, schedule: Q01DX010 (ip), vehicle: saline) was 227 % of control. For the same compound, the T/C (dose: 1.44 mg/kg/injection, schedule: Q04DX003 (ip), vehicle: saline) was 170 % of control, the T/C (dose: 1.44 mg/kg/injection, schedule: Q04DX003 (ip), vehicle: water) was 179 % of control and the T/C (dose: 2.4 mg/kg/injection, schedule: Q04DX003 (ip), vehicle: saline) was 184 % of control. For the same compound, the T/C (dose: 2.4 mg/kg/injection, schedule: Q04DX003 (ip), vehicle: water) was 192 % of control, the T/C (dose: 2.5 mg/kg/injection, schedule: Q01DX001 (ip), vehicle: saline) was 177 % of control and the T/C (dose: 4.0 mg/kg/injection, schedule: Q04DX003 (ip), vehicle: saline) was 252 % of control. The T/C (dose: 4.0 mg/kg/injection, schedule: Q04DX003 (ip), vehicle: water) was 259 % of control, the T/C (dose: 5.0 mg/kg/injection, schedule: Q01DX001 (ip), vehicle: saline) was 209 % of control and the T/C (dose: 6.67 mg/kg/injection, schedule: Q04DX003 (ip), vehicle: saline) was 118 % of control. The T/C (dose: 6.67 mg/kg/injection, schedule: Q04DX003 (ip), vehicle: water) was 118 % of control.
For COc1cc(Cl)c(CC(=O)c2c[nH]c3ccccc23)cc1OC, the T/C [3] was 103 % of control and the T/C [6] was 99 % of control.
